GI50 and TGI data for seven compounds are collected here from PubChem BioAssay (NCI).

Some test systems named below: 786-0 renal; CAKI-1 renal; HCT-116 colon; HOP-62 NSCLC; MDA-MB-231 breast; MOLT-4 leukemia; NCI-H522 lung; OVCAR-4 ovarian; RXF 393 renal; SK-MEL-28 melanoma.
What all share (assay): growth of human tumour cells (NCI), 48 h

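1) Cells in 96-well plates. 2) Compound, 48 h, 5 concentrations. 3) Linear interpolation between surrounding doses. 4) Unreached endpoint = highest concentration. At the GI50, growth is halved. Definition used: TGI = concentration required for complete inhibition of growth.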

In the case of `COc1cc(/C=C2\CC3C4CC=C5C[C@@H](O)CC[C@]5(C)C4CC[C@]3(C)C2=O)ccc1OCCCn1ccnc1` (some centres undefined), the GI50 in the assay on 786-0 renal was 17.3 µM; in the assay on CAKI-1 renal it was 19.1 µM; with HCT-116 colon, 16.1 µM; with HOP-62 NSCLC it was 19.4 µM; in the assay on MDA-MB-231 breast it was 27.1 µM; in the assay with MOLT-4 leukemia, 20.8 µM. For the same compound, the GI50 with NCI-H522 lung was 17.1 µM; in the assay with OVCAR-4 ovarian, 41.5 µM; in the assay on RXF 393 renal, 12.6 µM; with SK-MEL-28 melanoma it was 28.9 µM. For the same compound, the TGI with 786-0 renal was determined as 31.3 µM; with CAKI-1 renal, 39.8 µM; in the assay on HCT-116 colon, 33.4 µM; with HOP-62 NSCLC, 34.1 µM; with MDA-MB-231 breast it was 65.6 µM; in the assay with MOLT-4 leukemia, 41.8 µM. The TGI with NCI-H522 lung was 37.3 µM; in the assay on OVCAR-4 ovarian, over 100 µM; with RXF 393 renal, 34.8 µM; with SK-MEL-28 melanoma, over 100 µM.

On to `CN(C)CCCc1c2ccccc2nc2ccc(Cl)cc12`, for which the TGI in the assay with 786-0 renal came to 24.4 µM; in the assay with CAKI-1 renal it was 31.4 µM; in the assay with HCT-116 colon, 25.4 µM; in the assay with HOP-62 NSCLC, 30 µM; in the assay with MDA-MB-231 breast, 31.9 µM; in the assay on MOLT-4 leukemia, 44.5 µM. The TGI came out at 29.4 µM in the assay with NCI-H522 lung, 56.1 µM in the assay on OVCAR-4 ovarian, 28.8 µM with RXF 393 renal and 37.3 µM in the assay with SK-MEL-28 melanoma.

For `CCOC(=O)Nc1nc2cc(OCC)ccc2s1`, the GI50 was over 100 µM in the assay with 786-0 renal; over 75.4 µM with CAKI-1 renal; 6.82 µM in the assay with HCT-116 colon; 38.4 µM with HOP-62 NSCLC; over 100 µM in the assay with MDA-MB-231 breast; 31.7 µM with MOLT-4 leukemia. The GI50 with NCI-H522 lung is 6.05 µM; with OVCAR-4 ovarian, over 100 µM; in the assay with RXF 393 renal, over 100 µM; with SK-MEL-28 melanoma it was over 100 µM. Also, the TGI in the assay with 786-0 renal, in the assay with CAKI-1 renal, in the assay with HCT-116 colon, in the assay with HOP-62 NSCLC, with MDA-MB-231 breast and in the assay on MOLT-4 leukemia was over 100 µM throughout. For the same compound, the TGI in the assay on NCI-H522 lung, in the assay with OVCAR-4 ovarian, in the assay with RXF 393 renal and with SK-MEL-28 melanoma was over 100 µM in each case.

`COC(=O)c1cc(-c2ccc(OC)cc2)[nH]c1N/N=C/c1c(Cl)cccc1Cl`: the GI50 in the assay with 786-0 renal is 0.331 µM; in the assay on CAKI-1 renal it was 0.351 µM; in the assay with HCT-116 colon, 0.354 µM; with HOP-62 NSCLC it was 0.275 µM; in the assay on MDA-MB-231 breast, 0.462 µM; with MOLT-4 leukemia, 0.415 µM. In addition, the GI50 with NCI-H522 lung was 0.0877 µM; in the assay on OVCAR-4 ovarian it was 0.659 µM; in the assay with RXF 393 renal, 0.142 µM; with SK-MEL-28 melanoma, 0.387 µM. Besides, the TGI with 786-0 renal was 4.79 µM; in the assay on CAKI-1 renal it was 15.5 µM; with HCT-116 colon it was 2.14 µM; in the assay on HOP-62 NSCLC, 4.71 µM; with MDA-MB-231 breast, 3.24 µM; in the assay on NCI-H522 lung, 0.491 µM. Besides, the TGI is over 53.6 µM in the assay on OVCAR-4 ovarian, 0.332 µM with RXF 393 renal and over 100 µM in the assay with SK-MEL-28 melanoma.

With `Cn1cc(C2=C(c3cn(C)c4cc(N)ccc34)C(=O)NC2=O)c2ccccc21`, the GI50 is 3.42 µM in the assay on 786-0 renal; 1.39 µM with CAKI-1 renal; 1.28 µM in the assay with HCT-116 colon; 3.86 µM with HOP-62 NSCLC; 4.09 µM with MDA-MB-231 breast; 2.26 µM in the assay with MOLT-4 leukemia. Besides, the GI50 with NCI-H522 lung is 1.36 µM; in the assay on OVCAR-4 ovarian it was 4.41 µM; in the assay on RXF 393 renal, 1.84 µM; in the assay on SK-MEL-28 melanoma, 4.71 µM. Also, the TGI with 786-0 renal was over 25 µM; with CAKI-1 renal it was over 15 µM; in the assay with HCT-116 colon it was over 25 µM; in the assay on HOP-62 NSCLC, over 25 µM; with MDA-MB-231 breast, 16.2 µM; in the assay with MOLT-4 leukemia, over 18.7 µM. Also, the TGI with NCI-H522 lung amounted to 8.53 µM; in the assay on OVCAR-4 ovarian, 17.4 µM; in the assay on RXF 393 renal it was 7.59 µM; with SK-MEL-28 melanoma, 18.4 µM.

Take `CC[C@H](Nc1nc(N)nc(C2CC2)c1C#N)c1nc2cccc(NCc3ccc(C(=O)NO)cc3)c2c(=O)n1-c1ccccc1`: the GI50 is 1.68 µM with 786-0 renal; 1.5 µM in the assay on CAKI-1 renal; 1.25 µM in the assay on HCT-116 colon; 1.63 µM in the assay with HOP-62 NSCLC; 1.42 µM with MDA-MB-231 breast; 2.2 µM in the assay on MOLT-4 leukemia. Also, the GI50 with NCI-H522 lung was 1.69 µM; in the assay on OVCAR-4 ovarian it was 2.6 µM; in the assay on RXF 393 renal it was 0.582 µM; in the assay on SK-MEL-28 melanoma, 2.67 µM. Also, the TGI turned out to be 3.36 µM with 786-0 renal; 3.38 µM with CAKI-1 renal; 2.71 µM with HCT-116 colon; 4.29 µM in the assay with HOP-62 NSCLC; 3.86 µM in the assay on MDA-MB-231 breast; 10.9 µM in the assay on MOLT-4 leukemia. In addition, the TGI is 4.67 µM with NCI-H522 lung, over 100 µM in the assay with OVCAR-4 ovarian, 1.99 µM in the assay on RXF 393 renal and 7.44 µM with SK-MEL-28 melanoma.

Take `Nc1nc(N)nc(CC(=O)O)n1`: the TGI in the assay on 786-0 renal, in the assay on CAKI-1 renal, in the assay with HCT-116 colon, in the assay on HOP-62 NSCLC, in the assay with MDA-MB-231 breast and in the assay with MOLT-4 leukemia was over 100 µM each time. Also, the TGI in the assay with NCI-H522 lung, with OVCAR-4 ovarian, in the assay with RXF 393 renal and in the assay on SK-MEL-28 melanoma was over 100 µM each time.
